# Measurements reported in US11730746B2, “17beta-heterocyclyl-digitalis like compounds for the treatment of heart failure” (priority 2018, dated 2023).
# “And” between values parts separate entries of the source, which are not always exact repeats. Identical values can stand only once. Marks after values point to notes of the source that are not given here.
# Assays:
# SERCA2a = molecular target: T1, SERCA2a (Canis lupus familiaris, UniProt O46674); assay: SERCA2a ATPase activity in heart-derived SR microsomes from normal dog; type: biochemical; details: for Vmax (SERCA2a ATPase activity): mean ± SD
# T1 construct: pre-incubated with 2 μg of microsomes; from tissue; host or cells: dog heart left ventricle, SR microsomes
# T1 sequence (O46674 whole entry): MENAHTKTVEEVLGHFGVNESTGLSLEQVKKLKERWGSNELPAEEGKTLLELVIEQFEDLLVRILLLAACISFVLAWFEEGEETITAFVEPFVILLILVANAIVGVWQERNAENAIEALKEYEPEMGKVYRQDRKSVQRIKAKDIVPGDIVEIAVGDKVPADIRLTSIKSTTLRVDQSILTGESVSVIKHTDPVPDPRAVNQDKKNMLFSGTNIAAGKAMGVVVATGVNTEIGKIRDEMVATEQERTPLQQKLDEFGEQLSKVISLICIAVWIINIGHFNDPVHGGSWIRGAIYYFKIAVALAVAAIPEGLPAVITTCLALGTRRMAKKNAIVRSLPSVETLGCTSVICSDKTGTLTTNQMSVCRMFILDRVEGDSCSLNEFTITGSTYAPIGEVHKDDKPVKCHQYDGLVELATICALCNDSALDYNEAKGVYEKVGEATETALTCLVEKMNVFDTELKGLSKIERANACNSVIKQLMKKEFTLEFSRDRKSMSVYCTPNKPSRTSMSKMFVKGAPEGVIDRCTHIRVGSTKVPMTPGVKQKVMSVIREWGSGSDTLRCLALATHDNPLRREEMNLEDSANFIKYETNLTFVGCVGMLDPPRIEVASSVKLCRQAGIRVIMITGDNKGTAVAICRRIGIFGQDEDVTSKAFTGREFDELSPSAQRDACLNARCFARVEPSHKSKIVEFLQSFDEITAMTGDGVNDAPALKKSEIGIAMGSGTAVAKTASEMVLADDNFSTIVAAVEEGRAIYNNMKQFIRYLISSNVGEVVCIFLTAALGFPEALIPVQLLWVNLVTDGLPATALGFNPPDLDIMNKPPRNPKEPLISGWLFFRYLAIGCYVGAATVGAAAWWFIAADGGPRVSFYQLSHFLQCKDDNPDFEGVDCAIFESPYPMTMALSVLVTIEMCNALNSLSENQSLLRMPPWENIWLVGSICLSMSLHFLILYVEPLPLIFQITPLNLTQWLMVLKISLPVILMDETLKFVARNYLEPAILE
# Protocol: Left ventricle tissues were dissected, homogenized in 4 volumes of 10 mM NaHCO3, pH 7, 1 mM PMSF, 10 μg/ml Aprotinin and Leupeptin and centrifuged at 12,000 g for 15 minutes, as published (Nediani C. et al. J Biol Chem. 1996; 271:19066-73). Supernatants were filtered and centrifuged at 100,000 g for 30 min. Contractile proteins were extracted by suspending the pellets with 0.6 M KCl, 30 mM Histidine, pH 7 and further centrifugation at 100,000 g for 30 min. Final pellets were reconstituted with 0.3 M Sucrose, 30 mM Histidine, pH 7.
# SERCA2a activity was measured “in vitro” as ^32P-ATP hydrolysis at different Ca^2+ concentrations (100-4000 nM) in the absence and presence of the tested compounds, as described (Micheletti R. et al. Am J Card 2007; 99:24A-32A). Increasing concentrations of each compound (from 1 to 100 nM) were pre-incubated with 2 μg of microsomes for 5 min at 4° C. in 80 μl of a solution containing 100 mM KCl, 5 mM MgCl2, 1 μM A23187, 20 mM Tris, pH 7.5. Then, 20 μl of 5 mM Tris-ATP containing 50 nCi of ^32P-ATP (3-10 Ci/mmol, Perkin Elmer) were added. The ATP hydrolysis was continued for 15 min at 37° C. and the reaction was stopped by acidification with 100 μl of 20% v/v ice-cold perchloric acid. ^32P was separated by centrifugation with activated charcoal (Norit A, SERVA) and the radioactivity was measured. SERCA2a-dependent activity was identified as the portion of total hydrolytic activity inhibited by 10 μM cyclopiazonic acid (Seidler N W. et al. J Biol Chem. 1989; 264:17816-23).
# Dose-response curves were fitted by using a sigmoidal curve fitting software and the maximal velocity (Vmax) activity and the Kd Ca^2+ were calculated (Synergy Software KaleidaGraph 3.6).
# [1] = molecular target: T2, Transporter, Norepinephrine (NET) (Homo sapiens, UniProt P23975); assay: Receptor binding 204410
# T2 construct: Eurofins (contract assay) 204410
# T2 sequence (P23975 whole entry): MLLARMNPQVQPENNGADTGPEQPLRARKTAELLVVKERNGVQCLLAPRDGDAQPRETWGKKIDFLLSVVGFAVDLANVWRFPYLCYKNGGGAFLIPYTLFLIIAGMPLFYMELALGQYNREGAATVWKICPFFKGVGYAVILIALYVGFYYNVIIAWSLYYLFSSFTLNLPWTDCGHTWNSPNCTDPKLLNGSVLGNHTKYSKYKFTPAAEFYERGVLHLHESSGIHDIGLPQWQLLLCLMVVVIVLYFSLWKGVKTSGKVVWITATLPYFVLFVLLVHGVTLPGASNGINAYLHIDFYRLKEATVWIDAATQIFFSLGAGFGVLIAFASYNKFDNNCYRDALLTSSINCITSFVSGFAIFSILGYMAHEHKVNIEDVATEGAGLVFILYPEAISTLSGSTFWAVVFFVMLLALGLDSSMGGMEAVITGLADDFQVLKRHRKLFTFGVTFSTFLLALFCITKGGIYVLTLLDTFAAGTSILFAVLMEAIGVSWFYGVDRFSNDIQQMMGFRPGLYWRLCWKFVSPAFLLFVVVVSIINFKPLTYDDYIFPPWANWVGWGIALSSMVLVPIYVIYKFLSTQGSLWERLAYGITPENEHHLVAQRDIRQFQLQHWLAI
# Protocol: (§1) Radioligand binding to a panel of receptors was carried out by Eurofins on crude membrane preparations according to published procedures and by using appropriate reference standard (Eurofins, CVie 101 compound code PT #1207859, study #AB76416, quote #68407-1, for Cvie Therapeutics Limited, Taiwan (R.OC.) on Mar. 5, 2017). CVie 101 was tested at the concentration of 10 μM. No significant interaction was documented, except for Sodium Channel, site 2 from rat (cat #279510), where a significant response (≥50%) was noted (Table 7).
# Muscarinic M5 = molecular target: T3, Muscarinic M5 (Homo sapiens, UniProt P08912); assay: Receptor binding 253010
# T3 construct: Eurofins (contract assay) 253010
# T3 sequence (P08912 whole entry): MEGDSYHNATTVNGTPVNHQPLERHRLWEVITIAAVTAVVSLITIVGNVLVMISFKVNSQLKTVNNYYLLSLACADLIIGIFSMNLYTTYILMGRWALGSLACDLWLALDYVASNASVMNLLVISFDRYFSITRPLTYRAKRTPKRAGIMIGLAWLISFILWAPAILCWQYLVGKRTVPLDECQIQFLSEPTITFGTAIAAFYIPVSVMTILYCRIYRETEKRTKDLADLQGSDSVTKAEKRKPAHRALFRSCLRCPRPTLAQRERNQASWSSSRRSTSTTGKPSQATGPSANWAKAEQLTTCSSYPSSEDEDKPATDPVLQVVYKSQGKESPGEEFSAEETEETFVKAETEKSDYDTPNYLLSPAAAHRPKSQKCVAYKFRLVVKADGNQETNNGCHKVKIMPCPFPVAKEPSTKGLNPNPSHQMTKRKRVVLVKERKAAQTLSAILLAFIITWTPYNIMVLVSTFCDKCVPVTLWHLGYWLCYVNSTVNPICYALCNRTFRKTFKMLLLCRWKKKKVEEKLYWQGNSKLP
# Protocol: as §1
# Opiate μ(OP3, MOP) = molecular target: T4, Opiate μ(OP3, MOP) (Homo sapiens, UniProt P35372); assay: Receptor binding 260410
# T4 construct: Eurofins (contract assay) 260410
# T4 sequence (P35372 whole entry): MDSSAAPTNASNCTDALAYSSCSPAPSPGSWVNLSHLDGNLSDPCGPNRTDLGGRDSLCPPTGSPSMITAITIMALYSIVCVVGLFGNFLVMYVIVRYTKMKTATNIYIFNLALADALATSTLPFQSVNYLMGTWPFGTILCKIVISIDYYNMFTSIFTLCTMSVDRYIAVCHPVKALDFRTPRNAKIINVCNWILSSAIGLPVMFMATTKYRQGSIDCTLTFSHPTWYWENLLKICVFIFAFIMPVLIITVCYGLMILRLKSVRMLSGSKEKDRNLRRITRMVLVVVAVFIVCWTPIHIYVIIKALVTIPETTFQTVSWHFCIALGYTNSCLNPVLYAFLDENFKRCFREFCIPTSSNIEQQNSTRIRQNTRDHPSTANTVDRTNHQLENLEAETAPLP
# Protocol: as §1
# Phosphodiesterase PDE3 = molecular target: T5, Phosphodiesterase PDE3 (Homo sapiens, UniProt Q14432); assay: Eurofins panel 152000; type: biochemical
# T5 construct: Eurofins 152000
# T5 sequence (Q14432 whole entry): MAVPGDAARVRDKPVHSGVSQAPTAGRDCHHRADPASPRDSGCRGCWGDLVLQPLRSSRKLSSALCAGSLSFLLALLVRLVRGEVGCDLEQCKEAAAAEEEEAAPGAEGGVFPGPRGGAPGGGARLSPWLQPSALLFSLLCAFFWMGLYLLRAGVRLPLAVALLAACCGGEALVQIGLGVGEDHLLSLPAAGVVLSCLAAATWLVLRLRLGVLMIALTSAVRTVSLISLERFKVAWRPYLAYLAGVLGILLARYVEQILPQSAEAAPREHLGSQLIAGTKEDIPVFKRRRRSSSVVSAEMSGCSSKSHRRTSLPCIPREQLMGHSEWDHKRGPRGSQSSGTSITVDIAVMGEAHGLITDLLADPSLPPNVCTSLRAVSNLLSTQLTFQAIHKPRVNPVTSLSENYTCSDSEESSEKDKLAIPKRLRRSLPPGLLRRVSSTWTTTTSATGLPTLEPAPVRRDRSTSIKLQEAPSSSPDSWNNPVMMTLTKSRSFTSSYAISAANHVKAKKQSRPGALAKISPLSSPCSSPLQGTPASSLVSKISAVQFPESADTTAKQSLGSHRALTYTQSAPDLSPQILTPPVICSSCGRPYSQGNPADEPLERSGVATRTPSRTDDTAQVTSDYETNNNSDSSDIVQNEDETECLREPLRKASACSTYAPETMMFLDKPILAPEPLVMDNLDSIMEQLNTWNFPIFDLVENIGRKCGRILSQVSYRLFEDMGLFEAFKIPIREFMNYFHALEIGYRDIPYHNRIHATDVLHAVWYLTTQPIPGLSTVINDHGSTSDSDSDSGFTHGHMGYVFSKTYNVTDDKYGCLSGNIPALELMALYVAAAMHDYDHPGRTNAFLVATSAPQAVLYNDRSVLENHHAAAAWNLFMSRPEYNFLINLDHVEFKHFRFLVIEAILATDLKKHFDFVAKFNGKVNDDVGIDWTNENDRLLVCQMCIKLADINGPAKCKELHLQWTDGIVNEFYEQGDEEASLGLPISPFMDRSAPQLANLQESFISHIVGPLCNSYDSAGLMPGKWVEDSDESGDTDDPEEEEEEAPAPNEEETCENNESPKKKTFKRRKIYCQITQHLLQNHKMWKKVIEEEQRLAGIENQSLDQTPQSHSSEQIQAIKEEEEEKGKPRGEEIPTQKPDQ
# Protocol: as §1
# Estrogen ERα = molecular target: T6, Estrogen ERα (Homo sapiens, UniProt P03372); assay: Receptor binding 226010
# T6 construct: Eurofins (contract assay) 226010
# T6 sequence (P03372 whole entry): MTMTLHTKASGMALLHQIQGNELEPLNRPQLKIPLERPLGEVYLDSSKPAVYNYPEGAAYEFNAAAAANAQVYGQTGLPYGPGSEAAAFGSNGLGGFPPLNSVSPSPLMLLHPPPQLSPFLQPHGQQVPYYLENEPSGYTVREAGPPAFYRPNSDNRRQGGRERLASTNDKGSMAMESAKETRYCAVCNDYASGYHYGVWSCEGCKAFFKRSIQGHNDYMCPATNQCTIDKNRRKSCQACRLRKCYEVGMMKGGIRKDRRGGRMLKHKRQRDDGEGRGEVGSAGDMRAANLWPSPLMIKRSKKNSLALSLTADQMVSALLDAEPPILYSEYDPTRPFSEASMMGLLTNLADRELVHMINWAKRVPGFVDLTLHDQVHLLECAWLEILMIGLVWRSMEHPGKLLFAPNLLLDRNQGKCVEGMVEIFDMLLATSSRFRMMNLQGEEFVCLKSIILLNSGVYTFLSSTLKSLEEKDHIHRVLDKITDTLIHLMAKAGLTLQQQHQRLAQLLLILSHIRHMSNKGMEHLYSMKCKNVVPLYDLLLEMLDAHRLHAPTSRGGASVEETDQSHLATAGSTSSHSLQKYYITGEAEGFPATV
# Protocol: as §1
# guinea pig = assay: Haemodynamics: inotropic and lethal dose in guinea pig; type: in vivo; details: for E max % increase in dP/dtmax: 90 min; for ED max: cumulative dose
# Protocol: Guinea-pigs (400-450 g) were anaesthetized with urethane (1.5 g/kg ip). A microtip pressure transducer was introduced into the left ventricle through the right carotid artery to measure ventricular pressure (LVP); the transducer was coupled with a transducer amplifier. Recordings were fed to a polygraph and analyzed. A polythene cannula was inserted into a jugular vein for drug infusion. After a stabilization period, the test substance was injected at the rate of 0.16 ml/min for 90 min (Micheletti R et al. J Pharmacol Exp Ther 2002; 303:592-600).
# The following parameters were obtained: heart rate (HR), left ventricular pressure (LVP), maximal velocity of pressure rise (+dP/dtmax) and decay (−dP/dtmax), ECG. For inotropy, the time elapsed until +dP/dtmax increased by 80% was identified in order to determine the ED80 (dose increasing basal +dP/dtmax by 80%). The time to the maximum increase in +dP/dtmax was also identified to determine the maximum effective dose, EDmax. Lusitropy was characterized by the dose inducing the maximum decrease in −dP/dtmax, (EDmax). As indexes of toxicity, the dose administered until the onset of arrhythmias and the dose inducing death (LD) were calculated. The safety ratio for the tested compound was also calculated as the ratio between LD and ED80.
# [2] = test system: GABAA, Flunitrazepam, Central; assay: Receptor binding 226600; parameters: species or system rat; details: 10 μM
# Protocol: as §1
# [3] = test system: Glutamate, NMDA, Phencyclidine; assay: Receptor binding 233000; parameters: species or system rat; details: 10 μM
# Protocol: as §1
structure (smiles),measurement,setting,value
"C[C@]12CC[C@H](O)C[C@H]1CCC1C2CC[C@]2(C)[C@@H](c3c[nH]cn3)CC[C@]12O (stereo partly drawn) [CVie 101, 3β-hydroxy-5β-10β-methyl-13β-methyl-14β-hydroxy-17β-(imidazol-4-yl)androstane]",% increase vs Control (SERCA2a Vmax),SERCA2a; compound 10 nM,15%*
same,Vmax (SERCA2a ATPase activity),SERCA2a; compound 10 nM,2.737 ± 0.336 (n = 7) μmol/min/mg prot
same,% increase vs Control (SERCA2a Vmax),SERCA2a; compound 100 nM,19%*
same,Vmax (SERCA2a ATPase activity),SERCA2a; compound 100 nM,2.832 ± 0.198 (n = 7) μmol/min/mg prot
same,inhibition at 10 µM,[1],2%
same,inhibition at 10 µM,Muscarinic M5,21%
same,inhibition at 10 µM,"Opiate μ(OP3, MOP)",19%
same,inhibition at 10 µM,Phosphodiesterase PDE3,-16%
same,inhibition at 10 µM,Estrogen ERα,14%
same,Dead/treated number,guinea pig; i.v. infusion 0.2 mg/kg/min,1/8
same,ED80,guinea pig; i.v. infusion 0.2 mg/kg/min,1.6 mg/kg and 1.60 mg/kg
same,Lethal dose,guinea pig; i.v. infusion 0.2 mg/kg/min,>18 mg/kg
same,E max % increase in dP/dtmax,guinea pig; i.v. infusion 0.2 mg/kg/min,163.6%
same,ED max,guinea pig; i.v. infusion 0.2 mg/kg/min,3.73 mg/kg
same,Dead/treated number,guinea pig; i.v. infusion 0.5 mg/kg/min,8/8
same,ED80,guinea pig; i.v. infusion 0.5 mg/kg/min,2.74 mg/kg
same,Lethal dose,guinea pig; i.v. infusion 0.5 mg/kg/min,28.2 mg/kg
same,E max % increase in dP/dtmax,guinea pig; i.v. infusion 0.5 mg/kg/min,216.8%
same,ED max,guinea pig; i.v. infusion 0.5 mg/kg/min,5.08 mg/kg
same,LD/ED80,"guinea pig; i.v. infusion 0.5 mg/kg/min, safety ratio",11.32
same,% inhib,[2],6%
same,% inhib,[3],7%
